Laboratory results taken from patent US6572896B1, “Methods for inhibiting cell motility” (A.T. Still University of Health Sciences, priority 1998, dated 2003).
Values joined by “and” are separate entries in the source; they are usually repeats but may differ in a detail not shown here. Identical values can stand only once. Like-named read-outs stand apart in the source and are kept apart here. Marks after values point to notes of the source that are not given here.

Columns and labels:
B16F10 melanoma cells [1] = experiment: Motility assay in blind-well migration chambers with gelatin-coated filter; type: cell-based; conditions: for Motility with Verapamil (mean number of cells per filter): n = 2 filters
B16F10 melanoma cells [2] = experiment: Microscopic examination of cell morphology; type: cell-based; conditions: 4 hours
Protocol: Cell morphology was examined under conditions that were used in the motility assays. B16F10 melanoma cells were cultured directly on gelatin coated glass cover slips (0.1% gelatin for 2 hours and then air dried) for 24 hours under standard cell culture conditions. Culture media was then removed and the cells were washed twice with phosphate buffered saline (PBS) before being exposed to either 0.54 mM, 5.4 mM, or 54 mM K^+ in iso-osmotic saline solutions that were based on the electrolyte composition of RPMI-1640 media. Some solutions also contained GdCl3 or TbCl3 in a concentration of 20 μM. The cells were incubated at 5% CO2 and 37° C. for 4 hours before cells were photographed using an Olympus (IMT-2) inverted microscope.
In order to examine the effects of Gd^3+ and extracellular K^+ concentration on the morphology of the cells, B16F10 melanoma cells were grown under normal conditions on gelatin-coated glass coverslips. The cells were then washed twice with PBS and placed in solutions containing the following concentrations of K^+ and Gd^3+ for exposure periods of 4 hours: […]

B16F10 cells [3] = experiment: Trypan blue exclusion assay (cell viability)
Protocol: A test was run to determine the toxicity of Gd^3+ on cells when exposed for seven hours. B16F10 cells were incubated for 12 hours with Gd^3+ at a concentration of 20 μM in the RPMI-E2 solution. A different batch of B16F10 cells were incubated for 12 hours without Gd^3+ in the RPMI-E2 solution. The cells were then examined with a Trypan blue exclusion assay.

B16F10 cells [4] = experiment: Cell growth after 12 hour Gd^3+ exposure and washout; type: cell-based; conditions: Gd^3+ 20 μM in RPMI-E2 12 hours, washed, then growth medium without Gd^3+
Protocol: The potential long term effects of Gd^3+ on cell growth were determined. […] The cell growth was observed after the Gd^3+ was washed from the cells.

[5] = tested on: voltage-gated channels that control quantal neurotransmitter release; conditions: Gd^3+ up to 100 μM; cited from earlier work
[6] = tested on: A2058 human melanoma cells; conditions: cited from earlier work
[7] = Gd^3+ 20 μM in RPMI-E2, 12 hours
[8] = GdCl3 20 μM, RPMI-E2, normal K^+ and Ca^2+, seven hours, two independent runs

In the case of [Ca+2] [Ca^2+], the “increase in the motility of the cells” value (B16F10 melanoma cells [1]; elevated Ca^2+ (4 mM) vs normal (0.4 mM)) was about 20%, the “Motility (mean number of cells per filter)” value (B16F10 melanoma cells [1]; extracellular Ca^2+ 0.4 mM (RPMI-E, normal), no bFGF) was 78 ± 4^b cells per filter and the “Motility (mean number of cells per filter)” value (B16F10 melanoma cells [1]; extracellular Ca^2+ 4.0 mM (RPMI-E4Ca, elevated), no bFGF) was 100 ± 6 cells per filter.

For “bFGF: Basic fibroblast growth factor used to enhance motility”, the “Motility (mean number of cells per filter)” value (B16F10 melanoma cells [1]; bFGF 25 ng/ml in serum free RPMI-1640 in top well) was 180 ± 30 cells per filter and the “increase in the motility of melanoma cells” value (B16F10 melanoma cells [1]; bFGF 25 ng/ml in serum free RPMI-1640 vs no bFGF) was “three-fold increase”.

For [K+] [K^+], the cell morphology (B16F10 melanoma cells [2]; high K^+ (54 mM), no Gd^3+) was “rounder and exhibited pseudopodia that appeared blunted”, the cell morphology (B16F10 melanoma cells [2]; low K^+ (0.54 mM), no Gd^3+) was “slightly more cells were observed with distinct lamellipodia” and the “Motility (mean number of cells per filter)” value (B16F10 melanoma cells [1]; K^+ 0.54 mM, absence of Gd) was 1387 ± 103^b cells per filter. The “Motility (mean number of cells per filter)” value (B16F10 melanoma cells [1]; K^+ 2.75 mM, absence of Gd) was 1164 ± 1006 cells per filter, the “Motility (mean number of cells per filter)” value (B16F10 melanoma cells [1]; K^+ 3.87 mM, absence of Gd) was 591 ± 40 cells per filter and the “Motility (mean number of cells per filter)” value (B16F10 melanoma cells [1]; K^+ 5.4 mM (normal, RPMI-E2), absence of Gd) was 475 ± 20 cells per filter. For the same compound, the “Motility (mean number of cells per filter)” value (B16F10 melanoma cells [1]; K^+ 10.0 mM, absence of Gd) was 578 ± 15 cells per filter, the “Motility (mean number of cells per filter)” value (B16F10 melanoma cells [1]; K^+ 16.25 mM, absence of Gd) was 494 ± 49 cells per filter and the “Motility (mean number of cells per filter)” value (B16F10 melanoma cells [1]; K^+ 22.0 mM, absence of Gd) was 558 ± 25 cells per filter. For the same compound, the “Motility (mean number of cells per filter)” value (B16F10 melanoma cells [1]; K^+ 27.5 mM, absence of Gd) was 471 ± 57 cells per filter, the “Motility (mean number of cells per filter)” value (B16F10 melanoma cells [1]; K^+ 35.0 mM, absence of Gd) was 646 ± 65 cells per filter and the “Motility (mean number of cells per filter)” value (B16F10 melanoma cells [1]; K^+ 54.0 mM, absence of Gd) was 1188 ± 50 cells per filter.

For COc1ccc(CCN(C)CCCC(C#N)(c2ccc(OC)c(OC)c2)C(C)C)cc1OC (centres unmarked) [Verapamil, verapamil, reference compound], the “Motility with Verapamil (mean number of cells per filter)” value (B16F10 melanoma cells [1]; verapamil 100 μM, 0.5 mM K^+) was 1116 cells per filter, the “Motility with Verapamil (mean number of cells per filter)” value (B16F10 melanoma cells [1]; verapamil 100 μM, 5 mM K^+) was 434^b cells per filter and 519 cells per filter and the “Motility with Verapamil (mean number of cells per filter)” value (B16F10 melanoma cells [1]; verapamil 100 μM, 50 mM K^+) was 1100 cells per filter. For the same compound, the effect on motility (B16F10 melanoma cells [1]; verapamil 100 μM, control, high K^+ and low K^+ conditions) was “did not reduce motility in a way corresponding to the reduction produced by Gd^3+ and Co^2+”.

In the case of [Cl][Gd]([Cl])[Cl] [GdCl3], the cells stained blue (B16F10 cells [3]; [7]) was “Less than 1%”, the “viability versus cells not treated” value (B16F10 cells [3]; [7]) was “no difference in viability” and the “Trypan Blue exclusion of vacuolated cells (membrane integrity)” value (B16F10 cells [3]; after 20 μM Gd^3+, low K^+, 4 hours) was “vacuolated cells excluded dye”. The “effect on cell growth after washout” value (B16F10 cells [4]) was “No obvious inhibitory effect on cell growth”, the cell morphology (B16F10 melanoma cells [2]; 20 μM Gd^3+, low K^+ (0.54 mM)) was “rounded and flattened cells with prominent vacuoles” and the cell morphology (B16F10 melanoma cells [2]; 20 μM Gd^3+, normal K^+ (5.4 mM)) was “larger, rounded cells devoid of pseudopodia”. The cell morphology (B16F10 melanoma cells [2]; 20 μM in bathing solution) was “the cells had flattened and spread further”, the “effect on voltage-gated channels” value [5] was “no effect” and the “Motility (mean number of cells per filter)” value (B16F10 melanoma cells [1]; Gd 20 μM, K^+ 0.54 mM (RPMI-E2 low K^+)) was 240 ± 40^b cells per filter. For the same compound, the “Motility (mean number of cells per filter)” value (B16F10 melanoma cells [1]; Gd 20 μM, K^+ 54.0 mM (RPMI-E2 high K^+)) was 113 ± 10 cells per filter, the “inhibition of cell motility” value (B16F10 melanoma cells [1]; GdCl3 20 μM, High Ca^2+ HEPES Ringer solution (Example 1)) was 71% and the “Motility (mean number of cells per filter)” value (B16F10 melanoma cells [1]; GdCl3 20 μM, High Ca^2+ HEPES Ringer solution, 2 h preincubation + 5 h assay, bFGF) was 95 ± 6 cells per filter. For the same compound, the “Motility (mean number of cells per filter)” value (B16F10 melanoma cells [1]; [8]) was 33 ± 6 cells per filter and 50 ± 10 cells per filter, the reduction of motility (B16F10 melanoma cells [1]; [8]) was 73% and 75% and the “inhibition of cell motility” value (B16F10 melanoma cells [1]; Gd^3+ 20 μM, 0.54 mM K^+) was 83%. For the same compound, the “inhibition of cell motility” value (B16F10 melanoma cells [1]; Gd^3+ 20 μM, 54 mM K^+) was 90.5%.

With [Cl][Tb]([Cl])[Cl] [Tb^3+, TbCl3] the cell morphology (B16F10 melanoma cells [2]; 20 μM in bathing solution) was “the cells had flattened and spread further”.

For [Cl-].[Cl-].[Co+2] [CoCl2], the “inhibition of tumor cell motility” value [6] is listed as “completely ineffective”, the “inhibition of cell motility” value (B16F10 melanoma cells [1]) is listed as “approximately 87%” and the “Motility (mean number of cells per filter)” value (B16F10 melanoma cells [1]; 2 mM) is listed as 43 ± 4 cells per filter.
